The values that follow come from PMC11748689, “Pharmacological and structural understanding of the Trypanosoma cruzi proteasome provides key insights for developing site-specific inhibitors” (The Journal of Biological Chemistry, 2024).

The target of test [1] is native T. cruzi proteasome (chymotrypsin-like activity, β5) (Trypanosoma cruzi, UniProt V5BU39+V5C017). The test is described as follows: Chymotrypsin-like activity assay (Proteasome-Glo), native T. cruzi proteasome. In kind it is biochemical. Here is the method:
(§1) Chymotrypsin-, trypsin-, and caspase-like activity assays were performed using a commercially available Proteasome-Glo 3-substrate system assay kit (catalog number G8532) (Promega Corporation) according to the manufacturers protocols and as previously described ([24]).
(§2) Prior to running assays, Proteasome-Glo buffer was used to reconstitute the luciferin detection reagent (containing a recombinant thermostable luciferase enzyme). The resuspended luciferin detection reagent was then mixed with Proteasome-Glo chymotrypsin-, trypsin- or caspase-like substrates (either 40 μM suc-Leu-Leu-Val-Tyr-aminoluciferin, 30 μM Z-Leu-Arg-Arg-aminoluciferin (Z is benzyloxycarbonyl) or 40 μM Z-Nle-Pro-Nle-Asp-aminoluciferin respectively (these concentrations represent 2x final assay concentrations)). These substrate mixtures were allowed to incubate at room temperature for 60 min prior to use to allow the removal of any contaminating free aminoluciferin.
(§3) When proteasome inhibitors were to be screened in the chymotrypsin, trypsin, and caspase assays, test compounds were dispensed into assay wells using an ECHO 550 acoustic dispenser (Labcyte) (final DMSO concentration 1%). Compounds were tested in either a 10-point concentration series (30 μM top final assay concentration, 1 in 3 dilution series) or a 12-point concentration series (30 μM top final assay concentration, 1 in 2.5 dilution series).
(§4) Proteasome assays were then performed as described above using Promega Proteasome-Glo 3-substrate system assay kit. […] Diluted proteasome (4 μl) was added to assay plates using an electronic multichannel pipette (Integra Biosciences Ltd) and the proteasome incubated with compound for 60 min at room temperature.
(§5) Following the 60 min incubation of proteasome and compounds, assays were initiated with the addition of 4 μl of a substrate mix (containing substrate and the luciferin detection reagent) using an electronic multichannel pipette. Final assay concentrations of substrates used were either 20 μM Suc-Leu-Leu-Val-Tyr-aminoluciferin, 15 μM Z-Leu-Arg-Arg-aminoluciferin, or 20 μM Z-Nle-Pro-Nle-Asp-aminoluciferin for chymotrypsin-, trypsin-, or caspase-like activity, respectively. Following a further 60 min assay incubation, luminescence was read using an EnVision 2102 Multilabel Reader (PerkinElmer, Inc) with 0.2 s per well reading time.
(§6) All data processing was performed using Microsoft Excel for Microsoft 365 software.
(§7) Nonlinear dose-response curve fitting was carried out using the Microsoft Excel add-in, XLfit (IDBS). Percentage inhibition data were either fitted to a standard 4-parameter logistic fit model (XLfit model 205; Equation 2) or a biphasic model (either XLfit model 300; Equation 3 or a custom biphasic model; Equation 4 (used in cases where the top and/or bottom parameters deviated from 100%/0% inhibition)).(2) y=A+(B−A)/1+(C/x)^D Where A = % inhibition at bottom, B = % inhibition at top, C = IC50, D = slope, x = inhibitor concentration and y = % inhibition.(3) y=(A/(1+10^(C−log(x))∗B))+((100−A)/(1+10^(D−log(x))∗B)) With A = % inhibition at midplateau, B = slope, C = log(IC50^A), D = log(IC50^B)).
(§8) All IC50 data generated were converted to pIC50 using Equation 5.

The target of test [2] is recombinant WT T. cruzi proteasome (chymotrypsin-like activity, β5) (Trypanosoma cruzi, UniProt V5BU39+V5C017). The test is described as follows: biochemical. As to conditions: for maximum % inhibition plateau, Chymotrypsin Assay, Wild-type: mean ± SD, N = 3 (N = 2 for DDD02091966), (a) mid-point plateau from biphasic curve fits. The test is classed as biochemical. Here is the method:
as §1, §2
(§9) Proteasome assays were carried out using 384-well, white, low-volume plates (catalog number 784904) (Greiner Bio-One) at room temperature (∼23 °C) in 8 μl reaction volumes. When activity checks were to be run in the presence or absence of a fixed concentration of proteasome inhibitor, 80 nL of the inhibitor (at a concentration 100x the required final assay concentration), or 80 nL dimethylsulfoxide (DMSO), were dispensed into assay plates using an Echo 550 acoustic dispenser (Labcyte).
(§10) A 1 in 2 dilution series of the various T. cruzi proteasome samples (native, recombinant WT, β4^R mutant, and Δβ1Δβ2 mutant) were produced in assay buffer (50 mM Tris–HCl, pH 7.5, 10 mM sucrose, 5 mM MgCl2, 1 mM DTT, 2 mM ATP, 150 mM NaCl, 1 mM EDTA, and 0.05 mg/ml bovine serum albumin). Subsequently, 4 μl of the various concentrations of diluted proteasome were added to assay plates using an electronic multichannel pipette (Integra Biosciences Ltd). When kinetic read activity checks were performed (Fig. 2), proteasome final assay concentrations used were 115 μg/ml, 115 μg/ml, and 230 μg/ml native proteasome (in the chymotrypsin, trypsin, and caspase assays, respectively), and 4.1 μg/ml, 3.4 μg/ml, or 1.4 μg/ml recombinant WT proteasome (in the chymotrypsin, trypsin, and caspase assays, respectively). When activity checks were to be run in the presence or absence of a proteasome inhibitor plates containing inhibitor or DMSO control were incubated with the relevant proteasome sample for 60 min at room temperature (this step was not included in activity check experiments where compounds were not used).
(§11) Following the 60 min incubation of proteasome and compound (if required), assays were initiated with the addition of 4 μl of substrate mix (containing substrate and the luciferin detection reagent) using an electronic multichannel pipette. Final assay concentrations of substrates used were either 20 μM Suc-Leu-Leu-Val-Tyr-aminoluciferin, 15 μM Z-Leu-Arg-Arg-aminoluciferin, or 20 μM Z-Nle-Pro-Nle-Asp-aminoluciferin for chymotrypsin-, trypsin- or caspase-like activity respectively.
(§12) Luminescence was read either kinetically or as an endpoint read using an EnVision 2102 Multilabel Reader (PerkinElmer, Inc) with 0.2 s per well reading time. When kinetic assays were run, luminescence was read every 5 min for 90 min. Endpoint assays were run for 60 min before luminescence was read. All data processing and linear fit analyses were performed using Microsoft Excel for Microsoft 365 software (Redmond, Washington; https://www.microsoft.com/).
as §3

Test [3] addresses recombinant Δβ1Δβ2 mutant T. cruzi proteasome (chymotrypsin-like activity) (Trypanosoma cruzi, UniProt V5BU39+V5C017). The test is described as follows: biochemical. In kind it is biochemical. Here is the method: (§13) Point mutations were created in individual subunits using overlapping PCR from the original templates using Polh and Tn7L primers outside the genes and suitable internal primers to introduce selected mutations. For Δβ1Δβ2, β1 Thr 55, and β2 Thr 67 were both mutated to Ala, the β4^R mutant was produced by mutating Phe 24 and Ile 29 to Leu and Met respectively in β4 subunit.
as §1, §2, §9, §10, §11, §12

The target of test [4] is recombinant β4^R mutant T. cruzi proteasome (chymotrypsin-like activity) (Trypanosoma cruzi, UniProt V5BU39+V5C017, F24L/I29M). The test is described as follows: biochemical. The test is classed as biochemical. The protocol: as §13, §1, §2, §9, §10, §11, §12
Test [5] has as its target native T. cruzi proteasome (trypsin-like activity, β2) (Trypanosoma cruzi, UniProt V5BCU3). The test is described as follows: Trypsin-like activity assay (Proteasome-Glo), native T. cruzi proteasome. In kind it is biochemical. As to conditions: mean ± SD, N = 3; read-out: pIC50, Trypsin Assay, Native (converted). Here is the method:
as §1, §2, §3, §4, §5, §6, §7, §8

Test [6] addresses recombinant WT T. cruzi proteasome (trypsin-like activity, β2) (Trypanosoma cruzi, UniProt V5BCU3). The experiment in a line: biochemical. As to conditions: mean ± SD, N = 3; read-out: pIC50, Trypsin Assay, Wild-type (converted). In kind it is biochemical. Here is the method: as §1, §2, §3, §4, §5, §6, §7, §8
The target in test [7] is recombinant β4^R mutant T. cruzi proteasome (trypsin-like activity) (Trypanosoma cruzi, UniProt V5BCU3). The test is classed as biochemical. As to conditions: mean ± SD, N = 3. Here is the method: as §13, §1, §2, §9, §10, §11, §12
Test [8] concerns the target native T. cruzi proteasome (caspase-like activity, β1) (Trypanosoma cruzi, UniProt V5BHX1). The experiment in a line: Caspase-like activity assay (Proteasome-Glo), native T. cruzi proteasome. In kind it is biochemical. As to conditions: mean ± SD, N = 3; read-out: pIC50, Caspase Assay, Native (converted). Here is the method:
as §1, §2, §3, §4, §5, §6, §7, §8

For test [9], the target named is recombinant WT T. cruzi proteasome (caspase-like activity, β1) (Trypanosoma cruzi, UniProt V5BHX1). The experiment in a line: Caspase-like activity assay (Proteasome-Glo), recombinant wild-type T. cruzi proteasome. In kind it is biochemical. Here is the method: as §1, §2, §3, §4, §5, §6, §7, §8
The target in test [10] is recombinant β4^R mutant T. cruzi proteasome (caspase-like activity) (Trypanosoma cruzi, UniProt V5BHX1). The test is described as follows: Caspase-like activity assay (Proteasome-Glo), recombinant β4^R mutant T. cruzi proteasome. The test is classed as biochemical. The protocol: as §13, §1, §2, §9, §10, §11, §12
Test [11] has as its system intracellular T. cruzi Silvio X10/7 A1 amastigotes. The test is described as follows: Intracellular T. cruzi assay. The test is classed as cell-based. The note with it: Trypanosoma cruzi; 96 h compound treatment, Vero host cells; given as [mean pEC50, SD, N]; read-out: Mean pEC50 against intracellular T. cruzi parasites (converted). Here is the method: Potency against intracellular T. cruzi Silvio X10/7 A1 amastigotes was determined as described previously ([53]), with a sole modification that the compound treatment duration was 96 h instead of 72 h. Vero host cells were obtained from The European Collection of Authenticated Cell Cultures (cat. number 84113001) and tested for mycoplasma (negative). T. cruzi Silvio X10/7 A1 was obtained from Prof. Alan Fairlamb, and discrete typing unit confirmed by genotyping ([53]).

Molecules are shown by their SMILES. Some results are limits rather than exact numbers.

Take `CNC(=O)c1cc(NC(=O)c2ccc(=O)n(Cc3ccc(OC)cc3)n2)ccc1F` [DDD02097487]: the IC50 in test [1] was 0.12 µM; in [2], 0.178 µM; in [3], 0.155 µM; in [4], more than 30.2 µM; in test [5], more than 30.2 µM; in test [6] it was more than 30.2 µM. Also, the IC50 in test [8], in test [9] and in [10] was more than 30.2 µM each time. Also, the “maximum % inhibition plateau, Chymotrypsin Assay, Wild-type” value in [2] stood at 48.2 ± 3.6%. In addition, the “extent of inhibition in chymotrypsin dose-response curve, Δβ1Δβ2 mutant” value in test [3] (top of dose-response curve) is listed as “unable to fully inhibit”. Also, the “pIC50, Trypsin Assay, β4^R mutant” value in [7] is less than 4.52. For the same compound, the EC50 in test [11] was 0.794 µM.
For the compound `O=C(Nc1ccc(F)c(-c2cn3nc(N4CCOCC4)cnc3n2)c1)N1CCCC1` [DDD01012247], the IC50 in test [1] is 0.012 µM; in test [2], 0.0162 µM; in test [3] it was 0.0195 µM; in [4], 6.92 µM; in test [5] it was more than 30.2 µM; in [6] it was more than 30.2 µM. Moreover, the IC50 in test [8], in test [9] and in test [10] was more than 30.2 µM in each case. In addition, the “maximum % inhibition plateau, Chymotrypsin Assay, Wild-type” value in test [2] is recorded as 68.9 ± 3.5%. Also, the “pIC50, Trypsin Assay, β4^R mutant” value in test [7] is reported as less than 4.52. In addition, in [11], the EC50 was 0.126 µM.
